Assay results as given in US20050112573A1, “Method of detecting toxic substance” (priority 2001, published 2005).

System: yeast genes (level of expressed mRNA)
Assay: DNA chip analysis of expressed mRNA of yeast genes after 2 h culture with a toxic chemical substance
Assay type: cell-based, Saccharomyces cerevisiae S288C
Settings: for The level of expressed mRNA in the presence of chemical substance/ (ratio to absence of chemical substance): stress protein genes, DNA chip
Outline: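 S. cerevisiae S288C grown at 25° C in YPD; toxicant added at log phase at growth-inhibitory, non-lethal levels for 2 h, untreated cells as control. Poly(A) mRNA reverse-transcribed with Cy3/Cy5-dUTP, hybridized to whole-genome chip at 65° C >12 h; value is fluorescence ratio versus untreated.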

## CCCCC[C@H](O)CC(=O)CCc1ccc(O)c(OC)c1 [(13), gingerol]
Yeast gene YIL140W
  The level of expressed mRNA in the presence of chemical substance/The level of expressed mRNA in the absence of chemical substance: 0.5
Yeast gene YJL070C, ratio of DNA chip fluorescence intensity to that without chemical substance
  The level of expressed mRNA in the presence of chemical substance/ (in its absence), gene YJL070C: 1.8
Yeast gene YJL073W
  The level of expressed mRNA in the presence of chemical substance/The level of expressed mRNA in the absence of chemical substance: 1.6
Yeast gene YJL089W
  The level of expressed mRNA in the presence of chemical substance/The level of expressed mRNA in the absence of chemical substance: 1.8
Yeast gene YJL096W, mitochondria-located protein genes, 2 h culture with chemical
  The level of expressed mRNA in the presence of chemical substance/ (ratio to absence), gene YJL096W: 0.7
Yeast gene YJL116C
  The level of expressed mRNA in the presence of chemical substance/The level of expressed mRNA in the absence of chemical substance: 4.3
Yeast gene YJL158C
  The level of expressed mRNA in the presence of chemical substance/ (ratio to absence of chemical substance): 0.4
Yeast gene YJL167W, ratio of DNA chip fluorescence intensity to that without chemical substance
  The level of expressed mRNA in the presence of chemical substance/ (in its absence), gene YJL167W: 0.9
Yeast gene YJL180C, mitochondria-located protein genes, 2 h culture with chemical
  The level of expressed mRNA in the presence of chemical substance/ (ratio to absence), gene YJL180C: 1.2
Yeast gene YJL216C, ratio of DNA chip fluorescence intensity to that without chemical substance
  The level of expressed mRNA in the presence of chemical substance/ (in its absence), gene YJL216C: 1.1
Yeast gene YJR004C
  The level of expressed mRNA in the presence of chemical substance/The level of expressed mRNA in the absence of chemical substance: 0.3
Yeast gene YJR086W
  The level of expressed mRNA in the presence of chemical substance/The level of expressed mRNA in the absence of chemical substance: 0.9
Yeast gene YJR090C
  The level of expressed mRNA in the presence of chemical substance/ (ratio to absence of chemical substance): 2.2
Yeast gene YKL008C
  The level of expressed mRNA in the presence of chemical substance/The level of expressed mRNA in the absence of chemical substance: 1.7
Yeast gene YKL013C
  The level of expressed mRNA in the presence of chemical substance/The level of expressed mRNA in the absence of chemical substance: 1.3
Yeast gene YKL039W
  The level of expressed mRNA in the presence of chemical substance/The level of expressed mRNA in the absence of chemical substance: 1.9
Yeast gene YKL041W
  The level of expressed mRNA in the presence of chemical substance/The level of expressed mRNA in the absence of chemical substance: 1.3
Yeast gene YKL096W
  The level of expressed mRNA in the presence of chemical substance/The level of expressed mRNA in the absence of chemical substance: 0.1
Yeast gene YKL164C
  The level of expressed mRNA in the presence of chemical substance/ (ratio to absence of chemical substance): 0.9
Yeast gene YKL165C
  The level of expressed mRNA in the presence of chemical substance/The level of expressed mRNA in the absence of chemical substance: 3.2
Yeast gene YKL193C
  The level of expressed mRNA in the presence of chemical substance/The level of expressed mRNA in the absence of chemical substance: 2.1
Yeast gene YKR009C, ratio of DNA chip fluorescence intensity to that without chemical substance
  The level of expressed mRNA in the presence of chemical substance/ (in its absence), gene YKR009C: 1.8
Yeast gene YKR034W, ratio of DNA chip fluorescence intensity to that without chemical substance
  The level of expressed mRNA in the presence of chemical substance/ (in its absence), gene YKR034W: 1.2
Yeast gene YKR053C
  The level of expressed mRNA in the presence of chemical substance/ (ratio to absence of chemical substance): 0.7
Yeast gene YKR058W, energy system protein genes, 2 h culture with the chemical, ratio to control without chemical
  The level of expressed mRNA in the presence of chemical substance/ in its absence, gene YKR058W: 0.7
Yeast gene YLR006C, ratio of DNA chip fluorescence intensity to that without chemical substance
  The level of expressed mRNA in the presence of chemical substance/ (in its absence), gene YLR006C: 0.8
Yeast gene YLR006C
  The level of expressed mRNA in the presence of chemical substance/ (ratio to absence of chemical substance): 0.8
Yeast gene YLR120C
  The level of expressed mRNA in the presence of chemical substance/The level of expressed mRNA in the absence of chemical substance: 4.8
Yeast gene YLR136C
  The level of expressed mRNA in the presence of chemical substance/The level of expressed mRNA in the absence of chemical substance: 2.9
Yeast gene YLR178C
  The level of expressed mRNA in the presence of chemical substance/The level of expressed mRNA in the absence of chemical substance: 7.5
Yeast gene YLR250W
  The level of expressed mRNA in the presence of chemical substance/The level of expressed mRNA in the absence of chemical substance: 1.2
Yeast gene YLR295C, energy system protein genes, 2 h culture with the chemical, ratio to control without chemical
  The level of expressed mRNA in the presence of chemical substance/ in its absence, gene YLR295C: 0.8
Yeast gene YLR295C, mitochondria-located protein genes, 2 h culture with chemical
  The level of expressed mRNA in the presence of chemical substance/ (ratio to absence), gene YLR295C: 0.8
Yeast gene YLR327C
  The level of expressed mRNA in the presence of chemical substance/The level of expressed mRNA in the absence of chemical substance: 2.8
Yeast gene YLR351C, ratio of DNA chip fluorescence intensity to that without chemical substance
  The level of expressed mRNA in the presence of chemical substance/ (in its absence), gene YLR351C: 0.9
Yeast gene YLR356W
  The level of expressed mRNA in the presence of chemical substance/The level of expressed mRNA in the absence of chemical substance: 2.5
Yeast gene YLR362W
  The level of expressed mRNA in the presence of chemical substance/The level of expressed mRNA in the absence of chemical substance: 2.4
Yeast gene YLR375W, ratio of DNA chip fluorescence intensity to that without chemical substance
  The level of expressed mRNA in the presence of chemical substance/ (in its absence), gene YLR375W: 1.6
Yeast gene YLR391W
  The level of expressed mRNA in the presence of chemical substance/The level of expressed mRNA in the absence of chemical substance: 0.9
Yeast gene YLR429W
  The level of expressed mRNA in the presence of chemical substance/The level of expressed mRNA in the absence of chemical substance: 2.3
Yeast gene YML129C, energy system protein genes, 2 h culture with the chemical, ratio to control without chemical
  The level of expressed mRNA in the presence of chemical substance/ in its absence, gene YML129C: 1.0
Yeast gene YML129C, mitochondria-located protein genes, 2 h culture with chemical
  The level of expressed mRNA in the presence of chemical substance/ (ratio to absence), gene YML129C: 1.0
Yeast gene YMR004W
  The level of expressed mRNA in the presence of chemical substance/The level of expressed mRNA in the absence of chemical substance: 2.2
Yeast gene YMR023C, mitochondria-located protein genes, 2 h culture with chemical
  The level of expressed mRNA in the presence of chemical substance/ (ratio to absence), gene YMR023C: 1.1
Yeast gene YMR094W
  The level of expressed mRNA in the presence of chemical substance/The level of expressed mRNA in the absence of chemical substance: 1.4
Yeast gene YMR104C
  The level of expressed mRNA in the presence of chemical substance/The level of expressed mRNA in the absence of chemical substance: 1.5
Yeast gene YMR186W
  The level of expressed mRNA in the presence of chemical substance/ (ratio to absence of chemical substance): 2.4
Yeast gene YMR219W
  The level of expressed mRNA in the presence of chemical substance/The level of expressed mRNA in the absence of chemical substance: 2.1
Yeast gene YMR226C
  The level of expressed mRNA in the presence of chemical substance/The level of expressed mRNA in the absence of chemical substance: 1.6
Yeast gene YMR267W, energy system protein genes, 2 h culture with the chemical, ratio to control without chemical
  The level of expressed mRNA in the presence of chemical substance/ in its absence, gene YMR267W: 0.7
Yeast gene YMR267W, mitochondria-located protein genes, 2 h culture with chemical
  The level of expressed mRNA in the presence of chemical substance/ (ratio to absence), gene YMR267W: 0.7
Yeast gene YMR267W, ratio of DNA chip fluorescence intensity to that without chemical substance
  The level of expressed mRNA in the presence of chemical substance/ in its absence, gene YMR267W: 0.7
Yeast gene YMR275C
  The level of expressed mRNA in the presence of chemical substance/The level of expressed mRNA in the absence of chemical substance: 2.1
Yeast gene YMR276W
  The level of expressed mRNA in the presence of chemical substance/The level of expressed mRNA in the absence of chemical substance: 1.9
Yeast gene YMR278W, ratio of DNA chip fluorescence intensity to that without chemical substance
  The level of expressed mRNA in the presence of chemical substance/ (in its absence), gene YMR278W: 2.5
Yeast gene YMR293C, ratio of DNA chip fluorescence intensity to that without chemical substance
  The level of expressed mRNA in the presence of chemical substance/ (in its absence), gene YMR293C: 0.8
Yeast gene YMR314W
  The level of expressed mRNA in the presence of chemical substance/The level of expressed mRNA in the absence of chemical substance: 2.6
